For data set [1], the system named is MRSA-Z (clinically isolated methicillin-resistant S. aureus). Put plainly: microbe, parasite or virus in culture. The format is cell-based, Staphylococcus aureus. Particulars: -Z (clinically isolated methicillin-resistant). On the procedure: (§1) The bacterial strains used in this study included Pseudomonas aeruginosa (P. aeruginosa, ATCC27853), Acinetobacter baumannii (A. baumannii, ATCC19606), Escherichia coli (E. coli, ATCC8739), and S. aureus (ATCC6538, two clinically isolated strains (SA220823 and SA15772)), and three clinically isolated methicillin-resistant strains (MRSA-Z, MRSA11, and MRSA22). All strains were grown in Luria-Bertani (LB) broth.
(§2) The minimum inhibitory concentration (MIC) for all strains was determined using the […] assay based on a previous study with minor modifications. Initially, strains in the exponential phase were diluted to a concentration of 2 × 10^5 CFU/mL using RPMI 1640 medium (Corning, New York, NY, USA). Next, 100 μL of the bacterial suspension was mixed with 100 μL of the sample solution (final concentration 0–200 μg/mL in RPMI 1640 medium) in 96-well plates. The plates were then incubated at 37 °C for 12–16 h. After incubation, the absorbance at 600 nm was measured, and the MIC was determined as the lowest concentration of the test sample in which no bacterial growth was detected in the well.

Data set [2] relates to MRSA11 (clinically isolated methicillin-resistant S. aureus). Put plainly: microbe, parasite or virus in culture. The format is cell-based, Staphylococcus aureus. The conditions noted are these: MRSA11 (clinically isolated methicillin-resistant). On the procedure:
as §1, §2

For data set [3], the system named is MRSA22 (clinically isolated methicillin-resistant S. aureus). Put plainly: microbe, parasite or virus in culture. The format is cell-based, Staphylococcus aureus. Particulars: MRSA22 (clinically isolated methicillin-resistant). On the procedure: as §1, §2
Another data set relates to S. aureus (ATCC6538). As to the kind of experiment: microbe, parasite or virus in culture. The format is cell-based, Staphylococcus aureus. On the procedure:
as §1, §2

Data set [4] concerns SA15772 (clinically isolated S. aureus). As to the kind of experiment: microbe, parasite or virus in culture. The data set is classed as cell-based, Staphylococcus aureus. The conditions noted are these: SA15772 (clinically isolated). On the procedure:
as §1, §2

In data set [5] the test system is SA220823 (clinically isolated S. aureus). Put plainly: microbe, parasite or virus in culture. The format is cell-based, Staphylococcus aureus. Particulars: SA220823 (clinically isolated). On the procedure:
as §1, §2

The test system of another data set is A. baumannii, ATCC19606. The data set is classed as cell-based, Acinetobacter baumannii. The conditions noted are these: RPMI 1640, 2 × 10^5 CFU/mL, 37 °C, 12–16 h, absorbance at 600 nm. On the procedure:
as §1, §2

A further data set relates to P. aeruginosa, ATCC9027. The format is cell-based, Pseudomonas aeruginosa. The conditions noted are these: P. aeruginosa ATCC9027 in Table 3; RPMI 1640, 37 °C, 12–16 h, absorbance at 600 nm.
The next data set has as its system mouse red blood cells. As to the kind of experiment: Hemolysis assay. The format is cell-based. The conditions noted are these: up to 400 μg/mL, 37 °C, 1 h, absorbance 540 nm, 1% Triton X-100 = 100%, 3 independent experiments. On the procedure:
The hemolysis and cytotoxicity assays were performed according to previous research with some modifications. In the hemolysis assay, mouse blood was collected in anticoagulant tubes, centrifuged (1000× g, 5 min), and washed with normal saline three times to obtain red blood cells. The red blood cells were then resuspended to prepare a 10% red blood cell suspension. The suspension was mixed with an equal volume solution of RK22 (final concentration 0–400 μg/mL), then incubated at 37 °C for 1 h and centrifuged (1000× g, 10 min). After this, 150 μL of the supernatant was transferred to a new 96-well plate, with absorbance then measured at 540 nm. Additionally, 1% Triton X-100 and sterile saline treatment groups accounted for 100% and 0% hemolysis, respectively.
Supplementary Figures and Figure legends
(§3) Figure S1. […] After incubation for 60 min at 37°C, cells were centrifuged (3,500 rpm, 5 min) and the absorbance of the supernatant was measured at 540 nm. The value for “zero hemolysis” was determined using sterile saline (negative control, NC), while 100% hemolysis was established using 1% (v/v) Triton X-100 (PC: positive control). Hemolysis of testing sample was calculated as the percentage of Triton X-100-induced hemolysis. […] Cell viability was determined by adding 10 μl CCK8 in to the cells and incubated for 1-4 h. The absorbance at 450 nm of the solution was measured with a microplate reader. […]

In the next data set the test system is HEK293T cells. As to the kind of experiment: Cytotoxicity assay (CCK8). The format is cell-based. The conditions noted are these: up to 400 μg/mL, 24 h, CCK8, absorbance 450 nm, 3 independent experiments. On the procedure:
In the cytotoxicity assay, HEK293T cells were cultured with Dulbecco’s Modified Eagle Medium (DMEM) (Corning, New York, NY, USA) consisting of 10% fetal bovine serum (FBS, Corning, New York, NY, USA) and 1% penicillin-streptomycin liquid (Solarbio, Beijing, China). After digestion using trypsin (Gibco, New York, NY, USA), the cell suspension (100 μL, 1 × 10^5 cells/mL, […]) was inoculated into each well of a 96-well plate. Once the cells were completely adherent, the supernatant was discarded, and fresh medium with or without 100 μL of RK22 (final concentration 6.25–400 μg/mL) was added to the 96-well plates. […] The plate was then incubated at 37 °C for an additional 1–4 h, with absorbance then measured at 450 nm. […]
as §3

For another data set, the system named is C57BL/6 mice. The format is in vivo, mouse. Particulars: male C57BL/6 mice, 96 h; for survival: n = 8. On the procedure:
Male C57BL/6 mice (6–8 weeks of age) were randomly divided into three groups of eight mice per group. Either normal saline or RK22 (20 and 40 mg/kg) was injected intravenously via the tail vein. […] For histopathological analysis, sections of lung, liver, spleen, and kidney were fixed with 4% paraformaldehyde, embedded in paraffin wax, and stained with hematoxylin and eosin (H&E).
Figure S2. In vivo acute toxicity of RK22. Male C57BL/6 mice (6–8 weeks of age, n = 8 /group) were injected intravenously via the tail vein with saline or RK22 (20 and 40 mg/kg). Mice were observed for survival status within 96 h of the injection (A) and blood was collected via retro-orbital bleeding for routine blood analysis (B-E). The sections of lung, liver, spleen and kidney were stained […]
(1 picture or pasted object on this page, not shown here)

Consider 1 sequence from PMC10487658, “Identification and Characterization of RK22, a Novel Antimicrobial Peptide from Hirudinaria manillensis against Methicillin Resistant Staphylococcus aureus” (International Journal of Molecular Sciences, 2023).

Where two headings read alike, the source gives them in different places. No end group written: not given here.

As for RKYKEKKDKSQNKKKKRKCMIL [RK22], the MIC in data set [1] amounted to 6.25 µg/mL; in [2], 6.25 µg/mL; in data set [3], 6.25 µg/mL; in the data set with S. aureus (ATCC6538) it was 6.25 µg/mL; in data set [4], 12.5 µg/mL; in data set [5], 12.5 µg/mL. Besides, the MIC with A. baumannii, ATCC19606 was 100 µg/mL; against P. aeruginosa, ATCC9027, over 100 µg/mL. For the same sequence, the hemolytic activity result in the data set on mouse red blood cells is “did not exhibit any obvious hemolytic activity”. Further, the cytotoxicity result in the data set with HEK293T cells is “did not demonstrate any noticeable cytotoxic effects”. The “hemoglobin (HGB)” value in the data set on C57BL/6 mice (20 and 40 mg/kg iv) is “did not induce any changes”. The “histopathological analysis (H&E) of lung, liver, spleen and kidney” value in the data set with C57BL/6 mice (20 and 40 mg/kg iv) is given as “no obvious tissue injury”. Also, the platelets entry with C57BL/6 mice (20 and 40 mg/kg iv) was “did not induce any changes”. Besides, the red blood cells result in the data set on C57BL/6 mice (20 and 40 mg/kg iv) is listed as “did not induce any changes”. Moreover, the white blood cells result with C57BL/6 mice (20 and 40 mg/kg iv) is listed as “did not induce any changes”. For the same sequence, the survival result in the data set with C57BL/6 mice (single dose 20 mg/kg intravenously via the tail vein) and in the data set with C57BL/6 mice (single dose 40 mg/kg intravenously via the tail vein) was “did not result in any fatalities” each time.
